PMC10132233 (Journal of Enzyme Inhibition and Medicinal Chemistry, 2023)

What was measured:
HER2 = HER2 (Homo sapiens, UniProt P04626); test: HotSpot kinase assay over HER2 (Reaction Biology); conditions: read-out: % kinase inhibition HER2
EGFR = EGFR (Homo sapiens, UniProt P00533); test: HotSpot kinase assay over EGFR (Reaction Biology); conditions: read-out: % kinase inhibition EGFR
[1] = test system: 22RV1 prostate carcinoma cell line; test: MTT cytotoxicity assay, 22RV1; assay type: cell-based; conditions: Homo sapiens, 24 h
Excerpt: (§1) Accordingly, we aimed to investigate the cytotoxic potential of this new series against prostate carcinoma cell lines. […] The potent nanomolar cell-based activity of this series of compounds over the tested prostate carcinoma cell line could be attributed to other possible targets in addition to EGFR and HER2 receptors. The presence of the 2-nitroimidazole moiety in the chemical structure of compounds 9a–h could develop possible covalent bonds between the nitroimidazole moiety and some cellular proteins.
(§2) Prostate cancer cell lines (PC3 and 22RV1) of American Type Culture Collection (ATCC) were obtained from Korean Cell Center (KCL). PC3 and 22RV1 cell lines were cultured in Roswell Park Memorial Institute Medium (RPMI) 1640 and Dulbecco’s modified Eagle’s medium (DMEM) (GenDepot, Barker, TX) supplemented with 1% penicillin–streptomycin and 10% foetal bovine serum (FBS). The cells were maintained at 37 °C in a 5% CO2 with a 95% humid atmosphere.
(§3) To further analyse the intracellular cytotoxicity effect of the as-synthesised compounds, MTT assay was performed. Moreover, the experiments were divided into subcategories. In each group, cancer cells were first seeded in 96-well plates (4 × 10^4 cells per well) and then incubated for 24 h at 37 °C in a 5% CO2-containing atmosphere. Subsequently, the medium from the culture plate was removed, and 100 µL of RPMI media containing different concentrations of compounds (0.01, 0.005, 0.0025, 0.00125, and 0.000625 µM) were then added into the cell lines in each well and incubated for 24 h in a 5% CO2 humidified incubator at 37 °C. Afterwards, MTT solution (150 μL, 1 mg/mL) was added to each well, replacing the media-containing compounds. After 4 h of incubation, the MTT reagent was removed, and 200 μL of DMSO was then added to dissolve the formazan crystals, and colour intensity was measured at a wavelength of 540 nm using a BioTek Synergy H1 instrument (BioTek, Winooski, VT). IC50 was calculated according to the equation of Boltzmann sigmoidal concentration–response curve using Graph Pad Prism 5 (La Jolla, CA).

[2] = test system: PC3 prostate carcinoma cell line; test: MTT cytotoxicity assay, PC3; assay type: cell-based; conditions: Homo sapiens, 24 h
Excerpt: as §1, §2, §3

Chain of EGFR (P00533 25-1210): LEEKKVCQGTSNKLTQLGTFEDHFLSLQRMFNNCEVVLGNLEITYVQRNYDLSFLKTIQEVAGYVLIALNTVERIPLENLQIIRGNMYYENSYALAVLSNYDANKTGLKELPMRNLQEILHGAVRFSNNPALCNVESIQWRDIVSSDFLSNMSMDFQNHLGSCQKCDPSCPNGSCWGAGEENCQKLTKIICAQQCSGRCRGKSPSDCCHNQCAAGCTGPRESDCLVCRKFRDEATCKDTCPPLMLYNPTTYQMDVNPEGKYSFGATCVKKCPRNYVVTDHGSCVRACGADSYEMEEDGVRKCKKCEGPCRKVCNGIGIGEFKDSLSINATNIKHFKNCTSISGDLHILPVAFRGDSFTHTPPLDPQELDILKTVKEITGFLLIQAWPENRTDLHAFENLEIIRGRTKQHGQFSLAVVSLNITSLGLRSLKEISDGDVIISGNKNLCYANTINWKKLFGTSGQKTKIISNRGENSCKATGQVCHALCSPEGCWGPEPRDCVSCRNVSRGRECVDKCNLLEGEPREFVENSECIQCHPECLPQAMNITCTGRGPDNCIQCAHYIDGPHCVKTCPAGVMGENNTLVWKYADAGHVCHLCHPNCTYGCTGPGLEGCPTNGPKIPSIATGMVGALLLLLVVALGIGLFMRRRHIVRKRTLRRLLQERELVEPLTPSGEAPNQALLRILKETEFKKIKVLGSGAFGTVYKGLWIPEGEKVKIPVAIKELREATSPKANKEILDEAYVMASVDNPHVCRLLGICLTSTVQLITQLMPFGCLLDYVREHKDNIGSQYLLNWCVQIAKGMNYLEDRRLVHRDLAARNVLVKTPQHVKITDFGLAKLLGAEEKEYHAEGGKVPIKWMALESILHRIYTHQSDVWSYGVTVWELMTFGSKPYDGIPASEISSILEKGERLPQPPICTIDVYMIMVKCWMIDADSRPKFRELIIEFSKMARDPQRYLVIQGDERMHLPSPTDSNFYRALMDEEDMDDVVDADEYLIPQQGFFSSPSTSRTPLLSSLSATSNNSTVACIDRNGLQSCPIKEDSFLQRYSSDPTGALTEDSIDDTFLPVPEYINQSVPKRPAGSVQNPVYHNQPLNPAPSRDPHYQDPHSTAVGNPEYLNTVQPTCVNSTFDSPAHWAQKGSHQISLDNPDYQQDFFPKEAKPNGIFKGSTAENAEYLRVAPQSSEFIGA
Chain of HER2 (P04626 23-1255): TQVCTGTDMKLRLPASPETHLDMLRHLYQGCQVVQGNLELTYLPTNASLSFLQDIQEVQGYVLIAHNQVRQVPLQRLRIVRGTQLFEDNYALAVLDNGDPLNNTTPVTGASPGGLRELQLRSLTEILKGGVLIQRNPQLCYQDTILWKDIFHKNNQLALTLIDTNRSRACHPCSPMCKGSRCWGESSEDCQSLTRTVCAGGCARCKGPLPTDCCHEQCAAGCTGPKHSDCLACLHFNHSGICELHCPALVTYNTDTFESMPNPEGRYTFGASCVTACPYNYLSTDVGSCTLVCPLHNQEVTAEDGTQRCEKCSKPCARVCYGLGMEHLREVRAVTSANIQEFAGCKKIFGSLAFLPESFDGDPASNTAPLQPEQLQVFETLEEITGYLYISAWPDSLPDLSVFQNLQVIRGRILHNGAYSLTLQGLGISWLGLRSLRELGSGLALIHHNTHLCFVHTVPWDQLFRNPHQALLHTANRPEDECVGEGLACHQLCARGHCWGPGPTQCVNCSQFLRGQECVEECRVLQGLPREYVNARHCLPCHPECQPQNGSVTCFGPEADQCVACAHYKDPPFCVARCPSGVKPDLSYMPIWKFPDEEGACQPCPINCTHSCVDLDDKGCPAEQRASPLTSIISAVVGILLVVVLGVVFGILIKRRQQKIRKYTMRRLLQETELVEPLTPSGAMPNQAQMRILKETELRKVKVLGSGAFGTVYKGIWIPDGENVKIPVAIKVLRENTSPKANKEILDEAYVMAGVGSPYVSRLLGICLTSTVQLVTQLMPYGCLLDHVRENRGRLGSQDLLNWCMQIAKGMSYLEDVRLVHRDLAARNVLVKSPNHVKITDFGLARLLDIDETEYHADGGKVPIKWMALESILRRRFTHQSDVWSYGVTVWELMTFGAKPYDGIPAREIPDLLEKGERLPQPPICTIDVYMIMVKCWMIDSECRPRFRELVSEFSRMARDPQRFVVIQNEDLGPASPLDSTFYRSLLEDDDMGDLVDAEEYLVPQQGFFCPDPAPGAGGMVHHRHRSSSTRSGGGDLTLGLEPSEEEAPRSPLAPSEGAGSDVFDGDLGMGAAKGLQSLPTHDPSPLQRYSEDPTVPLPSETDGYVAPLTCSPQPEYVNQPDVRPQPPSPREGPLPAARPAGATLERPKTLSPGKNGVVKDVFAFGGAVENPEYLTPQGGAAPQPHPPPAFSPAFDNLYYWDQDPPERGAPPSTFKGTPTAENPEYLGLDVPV

SMILES | melting point [°C] | inhibition at 10 µM (HER2) [%] | inhibition at 10 µM (EGFR) [%] | IC50 [1] [nM] | IC50 [2] [nM]
COc1cc2ncnc(Nc3ccc(Oc4ccc(Cl)c(Cl)c4)c(Cl)c3)c2cc1OCCCCn1ccnc1[N+](=O)[O-] [Compound 9b, N-(3-Chloro-4-(3,4-dichlorophenoxy)phenyl)-7-methoxy-6-(4-(2-nitro-1H-imidazol-1-yl)butoxy)quinazolin-4-amine] | 101 to 102 | 80.3 | 94.2 | 2 | 3.1
COc1cc2ncnc(Nc3ccc(Oc4ccc(Cl)c(Cl)c4)c(Cl)c3)c2cc1OCCCCCn1ccnc1[N+](=O)[O-] [Compound 9c, N-(3-Chloro-4-(3,4-dichlorophenoxy)phenyl)-7-methoxy-6-((5-(2-nitro-1H-imidazol-1-yl)pentyl)oxy)quinazolin-4-amine] | 94 to 95 | 78.6 | 90 | 1.9 | 3.3
COc1cc2ncnc(Nc3ccc(Oc4ccc(Cl)c(Cl)c4)c(Cl)c3)c2cc1OCCCCCCn1ccnc1[N+](=O)[O-] [Compound 9d, N-(3-Chloro-4-(3,4-dichlorophenoxy)phenyl)-7-methoxy-6-((6-(2-nitro-1H-imidazol-1-yl)hexyl)oxy)quinazolin-4-amine] | 90 to 91 | 72.1 | 88.9 | 2.8 | 2.1
COc1cc2ncnc(Nc3ccc(Oc4cccc(C(F)(F)F)c4)c(Cl)c3)c2cc1OCCCCCn1ccnc1[N+](=O)[O-] [Compound 9g, N-(3-Chloro-4-(3-(trifluoromethyl)phenoxy)phenyl)-7-methoxy-6-((5-(2-nitro-1H-imidazol-1-yl)pentyl)oxy)quinazolin-4-amine] | 90 to 91 | 96.2 | 99.2 | 1.3 | 4.6
COc1cc2ncnc(Nc3ccc(Oc4cccc(C(F)(F)F)c4)c(Cl)c3)c2cc1OCCCCCCn1ccnc1[N+](=O)[O-] [Compound 9h, N-(3-Chloro-4-(3-(trifluoromethyl)phenoxy)phenyl)-7-methoxy-6-((6-(2-nitro-1H-imidazol-1-yl)hexyl)oxy)quinazolin-4-amine] | 84 to 85 | 97 | 96.8 | 1.1 | 5.6
COc1cc2ncnc(Nc3ccc(Oc4ccc(Cl)c(Cl)c4)c(Cl)c3)c2cc1OCCCn1ccnc1[N+](=O)[O-] [Compound 9a, N-(3-Chloro-4-(3,4-dichlorophenoxy)phenyl)-7-methoxy-6-(3-(2-nitro-1H-imidazol-1-yl)propoxy)quinazolin-4-amine] | 237 to 238 | 69.8 | 89 | 2.3 | 6.1
COc1cc2ncnc(Nc3ccc(Oc4cccc(C(F)(F)F)c4)c(Cl)c3)c2cc1OCCCn1ccnc1[N+](=O)[O-] [Compound 9e, N-(3-Chloro-4-(3-(trifluoromethyl)phenoxy)phenyl)-7-methoxy-6-(3-(2-nitro-1H-imidazol-1-yl)propoxy)quinazolin-4-amine] | 232 to 233 | 81.7 | 98.9 | 0.8 | 7.3
